Results from PubChem BioAssay (NCI).
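Values below derive from 48-hour exposures of cells grown in 96-well plates, with endpoints linearly interpolated between the two concentrations bracketing the appropriate inhibition level. TGI: concentration producing complete growth inhibition.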

What was measured:
Assay in all cases: NCI tumour cell line growth inhibition, 48 h
SNB-75 CNS = system: SNB-75 CNS
DMS 114 small cell lung = system: DMS 114 small cell lung
A498 renal = system: A498 renal
SN12C renal = system: SN12C renal
ACHN renal = system: ACHN renal
UACC-62 melanoma = system: UACC-62 melanoma
LXFL 529 NSCLC = system: LXFL 529 NSCLC
SNB-19 CNS = system: SNB-19 CNS
HCC-2998 colon = system: HCC-2998 colon
K-562 leukemia = system: K-562 leukemia
OVCAR-3 ovarian = system: OVCAR-3 ovarian
SK-MEL-2 melanoma = system: SK-MEL-2 melanoma
SNB-78 CNS = system: SNB-78 CNS
SK-MEL-5 melanoma = system: SK-MEL-5 melanoma
MALME-3M melanoma = system: MALME-3M melanoma
RXF 393 renal = system: RXF 393 renal
IGROV1 ovarian = system: IGROV1 ovarian
NCI-H460 lung = system: NCI-H460 lung
HOP-18 NSCLC = system: HOP-18 NSCLC
COLO 205 colon = system: COLO 205 colon
SK-OV-3 ovarian = system: SK-OV-3 ovarian
SK-MEL-28 melanoma = system: SK-MEL-28 melanoma
HCT-116 colon = system: HCT-116 colon
KM12 colon = system: KM12 colon
SR leukemia = system: SR leukemia
SW-620 colon = system: SW-620 colon
SF-539 CNS = system: SF-539 CNS
DLD-1 colon = system: DLD-1 colon
OVCAR-8 ovarian = system: OVCAR-8 ovarian
RPMI-8226 leukemia = system: RPMI-8226 leukemia
SF-268 CNS = system: SF-268 CNS
OVCAR-4 ovarian = system: OVCAR-4 ovarian
HCT-15 colon = system: HCT-15 colon
NCI-H522 lung = system: NCI-H522 lung
TK-10 renal = system: TK-10 renal
U251 CNS = system: U251 CNS
NCI-H226 lung = system: NCI-H226 lung
CAKI-1 renal = system: CAKI-1 renal
A549 NSCLC = system: A549 NSCLC
KM20L2 colon = system: KM20L2 colon
UO-31 renal = system: UO-31 renal
MOLT-4 leukemia = system: MOLT-4 leukemia
HOP-62 NSCLC = system: HOP-62 NSCLC
M14 melanoma = system: M14 melanoma
UACC-257 melanoma = system: UACC-257 melanoma
HL-60(TB) leukemia = system: HL-60(TB) leukemia
786-0 renal = system: 786-0 renal
CCRF-CEM leukemia = system: CCRF-CEM leukemia
NCI/ADR-RES ovarian = system: NCI/ADR-RES ovarian
MDA-N = system: MDA-N
NCI-H23 lung = system: NCI-H23 lung
HT29 colon = system: HT29 colon
DU-145 prostate = system: DU-145 prostate
BT-549 breast = system: BT-549 breast
OVCAR-5 ovarian = system: OVCAR-5 ovarian
MDA-MB-435 = system: MDA-MB-435
HS 578T breast = system: HS 578T breast
SF-295 CNS = system: SF-295 CNS
MDA-MB-231 breast = system: MDA-MB-231 breast
HOP-92 NSCLC = system: HOP-92 NSCLC
LOX IMVI melanoma = system: LOX IMVI melanoma
EKVX NSCLC = system: EKVX NSCLC
T-47D breast = system: T-47D breast
PC-3 prostate = system: PC-3 prostate
MCF7 breast = system: MCF7 breast

**Q.** Which results are given for `CN(C)c1nc(=Nc2ccc3ccccc3c2)ss1`?
**A.** TGI (SNB-75 CNS): > 100 µM; TGI (DMS 114 small cell lung): 41.3 µM; TGI (A498 renal): > 100 µM; TGI (SN12C renal): > 100 µM; TGI (ACHN renal): > 100 µM; TGI (UACC-62 melanoma): > 100 µM; TGI (LXFL 529 NSCLC): > 100 µM; TGI (SNB-19 CNS): > 100 µM; TGI (HCC-2998 colon): > 100 µM; TGI (K-562 leukemia): > 100 µM; TGI (OVCAR-3 ovarian): > 100 µM; TGI (SK-MEL-2 melanoma): > 100 µM; TGI (SNB-78 CNS): > 100 µM; TGI (SK-MEL-5 melanoma): 29.9 µM; TGI (MALME-3M melanoma): > 100 µM; TGI (RXF 393 renal): > 100 µM; TGI (IGROV1 ovarian): > 100 µM; TGI (NCI-H460 lung): > 100 µM; TGI (HOP-18 NSCLC): > 100 µM; TGI (COLO 205 colon): 23.2 µM; TGI (SK-OV-3 ovarian): > 100 µM; TGI (SK-MEL-28 melanoma): > 100 µM; TGI (HCT-116 colon): > 100 µM; TGI (KM12 colon): > 100 µM; TGI (SR leukemia): 75.3 µM; TGI (SW-620 colon): > 100 µM; TGI (SF-539 CNS): > 100 µM; TGI (DLD-1 colon): > 100 µM; TGI (OVCAR-8 ovarian): > 100 µM; TGI (RPMI-8226 leukemia): 52.5 µM; TGI (SF-268 CNS): > 100 µM; TGI (OVCAR-4 ovarian): > 100 µM; TGI (HCT-15 colon): > 100 µM; TGI (NCI-H522 lung): 65.9 µM; TGI (TK-10 renal): 71.1 µM; TGI (U251 CNS): > 100 µM; TGI (NCI-H226 lung): > 100 µM; TGI (CAKI-1 renal): > 100 µM; TGI (A549 NSCLC): > 100 µM; TGI (KM20L2 colon): > 100 µM; TGI (UO-31 renal): > 100 µM; TGI (MOLT-4 leukemia): 20.9 µM; TGI (HOP-62 NSCLC): > 100 µM; TGI (M14 melanoma): > 100 µM; TGI (UACC-257 melanoma): 66.8 µM; TGI (HL-60(TB) leukemia): 54.7 µM; TGI (786-0 renal): > 100 µM; TGI (CCRF-CEM leukemia): 73.5 µM

**Q.** How did the TGI (SNB-75 CNS) turn out when `Cc1cc(C)c(C2=NOC(c3ccccc3)(c3cc(=O)n(-c4ccccc4)s3)O2)c(C)c1` (stereo not given) was run?
**A.** > 100 µM

**Q.** What about the TGI (NCI/ADR-RES ovarian) of the same compound?
**A.** 68.1 µM

**Q.** What about the TGI (MDA-N) of the same compound?
**A.** > 100 µM

**Q.** What about the TGI (A498 renal) of the same compound?
**A.** > 100 µM

**Q.** What about the TGI (SN12C renal) of the same compound?
**A.** > 100 µM

**Q.** What about the TGI (ACHN renal) of the same compound?
**A.** 52.2 µM

**Q.** And the TGI (UACC-62 melanoma)?
**A.** 51.5 µM

**Q.** What about the TGI (NCI-H23 lung) of the same compound?
**A.** 53.4 µM

**Q.** And the TGI (SNB-19 CNS)?
**A.** > 100 µM

**Q.** And the TGI (HCC-2998 colon)?
**A.** > 100 µM

**Q.** And the TGI (HT29 colon)?
**A.** 41.2 µM

**Q.** And the TGI (K-562 leukemia)?
**A.** > 100 µM

**Q.** And the TGI (DU-145 prostate)?
**A.** > 100 µM

**Q.** What about the TGI (SK-MEL-2 melanoma) of the same compound?
**A.** 89.5 µM

**Q.** And the TGI (SK-MEL-5 melanoma)?
**A.** > 100 µM

**Q.** What about the TGI (MALME-3M melanoma) of the same compound?
**A.** 40.1 µM

**Q.** What about the TGI (RXF 393 renal) of the same compound?
**A.** 33.3 µM

**Q.** What about the TGI (IGROV1 ovarian) of the same compound?
**A.** > 100 µM

**Q.** What about the TGI (NCI-H460 lung) of the same compound?
**A.** > 100 µM

**Q.** What about the TGI (BT-549 breast) of the same compound?
**A.** 52.4 µM

**Q.** What about the TGI (OVCAR-5 ovarian) of the same compound?
**A.** 40.9 µM

**Q.** What about the TGI (COLO 205 colon) of the same compound?
**A.** 63.4 µM

**Q.** And the TGI (SK-OV-3 ovarian)?
**A.** > 100 µM

**Q.** What about the TGI (SK-MEL-28 melanoma) of the same compound?
**A.** 94.4 µM

**Q.** And the TGI (HCT-116 colon)?
**A.** > 100 µM

**Q.** What about the TGI (MDA-MB-435) of the same compound?
**A.** > 100 µM

**Q.** And the TGI (KM12 colon)?
**A.** > 100 µM

**Q.** What about the TGI (SR leukemia) of the same compound?
**A.** > 100 µM

**Q.** And the TGI (SW-620 colon)?
**A.** > 100 µM

**Q.** And the TGI (OVCAR-8 ovarian)?
**A.** 36.5 µM

**Q.** And the TGI (HS 578T breast)?
**A.** > 100 µM

**Q.** What about the TGI (RPMI-8226 leukemia) of the same compound?
**A.** > 100 µM

**Q.** What about the TGI (SF-268 CNS) of the same compound?
**A.** > 100 µM

**Q.** And the TGI (SF-295 CNS)?
**A.** > 100 µM

**Q.** And the TGI (MDA-MB-231 breast)?
**A.** 95 µM

**Q.** And the TGI (OVCAR-4 ovarian)?
**A.** > 100 µM

**Q.** And the TGI (HCT-15 colon)?
**A.** 41 µM

**Q.** And the TGI (NCI-H522 lung)?
**A.** 35.8 µM

**Q.** What about the TGI (TK-10 renal) of the same compound?
**A.** 77.1 µM

**Q.** And the TGI (U251 CNS)?
**A.** 66.4 µM

**Q.** What about the TGI (HOP-92 NSCLC) of the same compound?
**A.** 62.5 µM

**Q.** And the TGI (LOX IMVI melanoma)?
**A.** 30.7 µM

**Q.** And the TGI (NCI-H226 lung)?
**A.** 57.1 µM

**Q.** And the TGI (CAKI-1 renal)?
**A.** 33.7 µM

**Q.** What about the TGI (A549 NSCLC) of the same compound?
**A.** > 100 µM

**Q.** And the TGI (EKVX NSCLC)?
**A.** 50.2 µM

**Q.** What about the TGI (UO-31 renal) of the same compound?
**A.** 47.1 µM

**Q.** And the TGI (MOLT-4 leukemia)?
**A.** > 100 µM

**Q.** And the TGI (HOP-62 NSCLC)?
**A.** > 100 µM

**Q.** And the TGI (M14 melanoma)?
**A.** 76.8 µM

**Q.** And the TGI (UACC-257 melanoma)?
**A.** > 100 µM

**Q.** What about the TGI (T-47D breast) of the same compound?
**A.** 44 µM

**Q.** What about the TGI (PC-3 prostate) of the same compound?
**A.** > 100 µM

**Q.** And the TGI (HL-60(TB) leukemia)?
**A.** > 100 µM

**Q.** And the TGI (MCF7 breast)?
**A.** 37.2 µM

**Q.** And the TGI (786-0 renal)?
**A.** 41.3 µM

**Q.** And the TGI (CCRF-CEM leukemia)?
**A.** > 100 µM
